Drawing on ChEMBL document CHEMBL4052617, “Antibacterial activity of N-methylbenzofuro[3,2-b]quinoline and N-methylbenzoindolo[3,2-b]-quinoline derivatives and study of their mode of action” (2017), this text covers inhibition, Activity and MIC for 1 compound.

Assay [1] deals with T1, Cell division protein FtsZ (Staphylococcus aureus) (UniProt P0A031).
T1 sequence (whole entry): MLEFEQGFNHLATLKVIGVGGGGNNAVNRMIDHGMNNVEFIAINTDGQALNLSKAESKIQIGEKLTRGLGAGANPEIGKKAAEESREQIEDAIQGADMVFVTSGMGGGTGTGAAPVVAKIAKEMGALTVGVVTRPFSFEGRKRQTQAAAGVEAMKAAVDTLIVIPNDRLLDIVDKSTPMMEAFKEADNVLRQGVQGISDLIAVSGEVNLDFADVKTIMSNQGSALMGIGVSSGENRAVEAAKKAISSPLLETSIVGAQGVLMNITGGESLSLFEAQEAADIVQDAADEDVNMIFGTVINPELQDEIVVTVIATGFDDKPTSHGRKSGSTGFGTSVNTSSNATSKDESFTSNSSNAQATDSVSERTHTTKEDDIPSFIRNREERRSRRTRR
Put plainly: Inhibition of recombinant N-terminal His6-tagged Staphylococcus aureus ATCC 29213 FtzS GTPase activity expressed in Escherichia coli BL21 (DE3) cells assessed as reduction in GTP hydrolysis at 8 ug/ml preincubated for 10 mins followed by GTP addition after 30 mins by CytoPhos reagent based assay.

The target in assay [2] is T1, Cell division protein FtsZ (Staphylococcus aureus). Put plainly: Inhibition of recombinant N-terminal His6-tagged Staphylococcus aureus FtzS expressed in Escherichia coli BL21 (DE3) cells assessed as reduction in protein protofilament bundling at 8 ug/ml preincubated for 10 mins followed by GTP addition after 15 mins by phosphotungstic acid staining based transmission electron microscopic method.

Assay [3] has as its system Staphylococcus aureus. Kind of assay: Bactericidal activity against methicillin-resistant Staphylococcus aureus ATCC BAA41 assessed as reduction in colony forming units at MIC concentration after 6 hrs by time kill assay. The class given is functional.
Assay [4] has as its system Staphylococcus aureus. Put plainly: Bactericidal activity against methicillin-resistant Staphylococcus aureus ATCC BAA41 assessed as reduction in colony forming units at 2 times MIC concentration after 6 hrs by time kill assay. Format: functional.
Assay [5] concerns Pseudomonas aeruginosa. Put plainly: Antibacterial activity against multidrug-resistant Pseudomonas aeruginosa ATCC BAA2108 after 18 hrs by Mueller-Hinton broth microdilution method. Format: functional. Conditions: ATCC BAA2108, 18 h.
For assay [6], the system named is Staphylococcus aureus. Kind of assay: Bactericidal activity against methicillin-resistant Staphylococcus aureus ATCC BAA41 assessed as reduction in colony forming units at 1 time MIC concentration after 24 hrs by time kill assay. Format: functional.
In assay [7] the target is T1, Cell division protein FtsZ (Staphylococcus aureus). Put plainly: Inhibition of recombinant N-terminal His6-tagged Staphylococcus aureus ATCC 29213 FtzS polymerization expressed in Escherichia coli BL21 (DE3) cells at 16 ug/ml in presence of GTP by fluorescence spectrometry method.
Assay [8] relates to Escherichia coli. Put plainly: Antibacterial activity against Escherichia coli ATCC 25922 after 18 hrs by Mueller-Hinton broth microdilution method. Format: functional. Conditions: ATCC 25922, 18 h.
Assay [9] has as its target T1, Cell division protein FtsZ (Staphylococcus aureus). Put plainly: Inhibition of recombinant N-terminal His6-tagged Staphylococcus aureus ATCC 29213 FtzS GTPase activity expressed in Escherichia coli BL21 (DE3) cells assessed as reduction in GTP hydrolysis at 16 ug/ml preincubated for 10 mins followed by GTP addition measured after 30 mins by CytoPhos reagent based assay.

Assay [10] has as its system Escherichia coli. Kind of assay: Bactericidal activity against Escherichia coli ATCC 25922 assessed as reduction in colony forming units at 4 times MIC concentration after 4 hrs by time kill assay. Format: functional.
In assay [11] the target is T1, Cell division protein FtsZ (Staphylococcus aureus). Put plainly: Inhibition of recombinant N-terminal His6-tagged Staphylococcus aureus ATCC 29213 FtzS GTPase activity expressed in Escherichia coli BL21 (DE3) cells assessed as reduction in GTP hydrolysis preincubated for 10 mins followed by GTP addition measured after 30 mins by CytoPhos reagent based assay.
Assay [12] concerns Enterococcus faecium. Put plainly: Antibacterial activity against antibiotic-susceptile Enterococcus faecium ATCC 49624 after 18 hrs by brain heart infusion broth microdilution method. The class given is functional. Conditions: ATCC 49624, 18 h.
Assay [13] has as its system Staphylococcus aureus. Put plainly: Antibacterial activity against Staphylococcus aureus ATCC 29213 after 18 hrs by cation adjusted Mueller-Hinton broth microdilution method. The class given is functional. Conditions: ATCC 29213, 18 h.
Assay [14] deals with T1, Cell division protein FtsZ (Staphylococcus aureus). Kind of assay: Inhibition of recombinant N-terminal His6-tagged Staphylococcus aureus FtzS expressed in Escherichia coli BL21 (DE3) cells assessed as reduction in protein polymer thickness at 8 ug/ml preincubated for 10 mins followed by GTP addition after 15 mins by phosphotungstic acid staining based transmission electron microscopic method.

Assay [15] has as its system Staphylococcus aureus. Put plainly: Antibacterial activity against methicillin-resistant Staphylococcus aureus ATCC BAA41 after 18 hrs by cation adjusted Mueller-Hinton broth microdilution method. Format: functional. As to conditions: ATCC BAA41, 18 h.
The target of assay [16] is T2, Cell division protein FtsZ (Bacillus subtilis (strain 168)) (UniProt P17865).
T2 sequence (whole entry): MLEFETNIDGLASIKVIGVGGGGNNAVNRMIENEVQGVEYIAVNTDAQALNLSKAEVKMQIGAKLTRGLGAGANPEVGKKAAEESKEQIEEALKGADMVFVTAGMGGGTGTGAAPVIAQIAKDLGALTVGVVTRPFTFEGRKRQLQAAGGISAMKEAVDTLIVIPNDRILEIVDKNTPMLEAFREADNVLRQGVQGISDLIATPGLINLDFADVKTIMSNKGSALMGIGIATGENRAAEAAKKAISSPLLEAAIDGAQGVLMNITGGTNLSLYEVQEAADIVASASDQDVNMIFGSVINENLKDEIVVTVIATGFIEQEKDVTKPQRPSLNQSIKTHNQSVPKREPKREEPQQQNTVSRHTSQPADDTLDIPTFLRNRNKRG
Kind of assay: Inhibition of Bacillus subtilis 168 GTPase activity of FtsZ assessed as increase in cell length at 2 ug/ml after 4 hrs by phase-contrast optical microscopic analysis. Conditions: Bacillus subtilis subsp. subtilis str. 168.

The subject of assay [17] is Escherichia coli. Kind of assay: Antibacterial activity against Escherichia coli ATCC […] expressing NDM-1 beta-lactamase after 18 hrs by Mueller-Hinton broth microdilution method. The class given is functional.
Assay [18] has as its target T1, Cell division protein FtsZ (Staphylococcus aureus). Put plainly: Inhibition of recombinant N-terminal His6-tagged Staphylococcus aureus ATCC 29213 FtzS polymerization expressed in Escherichia coli BL21 (DE3) cells in presence of GTP by fluorescence spectrometry method.
Assay [19] concerns Enterococcus faecium. Kind of assay: Antibacterial activity against vancomycin-resistant Enterococcus faecium ATCC 700221 after 18 hrs by brain heart infusion broth microdilution method. Format: functional. Conditions: ATCC 700221, 18 h.
The test system of assay [20] is Escherichia coli. Kind of assay: Bactericidal activity against Escherichia coli ATCC 25922 assessed as reduction in colony forming units at 1 to 2 times MIC concentration after 24 hrs by time kill assay. The class given is functional.
The subject of assay [21] is Klebsiella pneumoniae. Kind of assay: Antibacterial activity against Klebsiella pneumoniae ATCC BAA2470 expressing NDM-1 beta-lactamase after 18 hrs by Mueller-Hinton broth microdilution method. Format: functional. Conditions: ATCC BAA2470, 18 h.
Assay [22] has as its system Bacillus subtilis. Put plainly: Antibacterial activity against Bacillus subtilis 168 after 18 hrs by Mueller-Hinton broth microdilution method. Format: functional. As to conditions: subsp. subtilis str. 168, 18 h.
Assay [23] addresses T1, Cell division protein FtsZ (Staphylococcus aureus). Kind of assay: Inhibition of recombinant N-terminal His6-tagged Staphylococcus aureus ATCC 29213 FtzS GTPase activity expressed in Escherichia coli BL21 (DE3) cells assessed as reduction in GTP hydrolysis at 4 ug/ml preincubated for 10 mins followed by GTP addition measured after 30 mins by CytoPhos reagent based assay.

Activity calls are given as the source filed them. The calls are words filed in the database; no cut-off is given here.

Take `COc1ccc(Nc2c3ccccc3[n+](C)c3c2[nH]c2ccccc23)cc1.[I-]`: the inhibition in [1] is 50%; in assay [9], 60%; in assay [11] it was “Dose-dependent effect”; in [18], “Dose-dependent effect”; in [23], 20%. Moreover, the inhibition result in assay [2], in assay [7], in [10], in [14] and in assay [20] was “Active” in each case. Besides, the Activity in assay [3] is 1 ×10² CFU/ml; in assay [4] it was 1 ×10³ CFU/ml; in assay [6] it was 1 ×10³ CFU/ml. The minimum inhibitory concentration (MIC) was determined as 48 µg/mL in assay [5]; 6 µg/mL in assay [8]; 4 µg/mL in [12]; 2 µg/mL in [13]; 2 µg/mL in assay [15]; 6 µg/mL in [17]. Moreover, the MIC is 4 µg/mL in assay [19], 48 µg/mL in [21] and 2 µg/mL in [22]. The outcome in assay [16] was Active.
